Reference: US20100190743A1, “Method and Composition for Treatment of a Mucosal Tissue Disorder” (Chitogenics, Inc., priority 2005, published 2010)

Experiments:
[1] = system: rat model of Interstitial Cystitis; experiment: Efficacy of sNOCC in reducing inflammation in a rat model of interstitial cystitis (Example 2), bladder histology inflammatory score; assay type: in vivo
Description: Animals: Female Sprague-Dawley rats (225-250 g) were purchased from Charles River Laboratories. Animals were provided with food and water ad libitum. Intra-vesicular inoculation of protamine sulfate (PS) and LPS: Rats were anesthetized with sodium pentobarbital (65 mg/kg). The surface area around the urethral opening was swabbed with 70% isopropyl alcohol and Betadine. A lubricated sterile catheter (PE-50), handled with sterile gloves, was inserted into the bladder through the urethral opening. The catheter was connected to a 1 ml syringe via a 25 G needle and the bladder was emptied as described above. One group of rats was inoculated with 1 ml PS (10 mg/ml) in phosphate buffered saline (PBS) into the bladder via the catheter. After 45 minutes, the bladders were emptied, washed with PBS, then given a second treatment with 1 ml LPS (750 μg/ml) in PBS for 30 minutes. […]
The parameters of inflammation measured were: increased venous blood vessel size and volume (venous congestion), edema, cellular infiltration, and epithelial damage. […] The parameters were measured by a blinded observer using a five point score with 0 being the least severe and 5 being the most severe. A total inflammatory score was calculated for each rat by adding together the scores of the four inflammatory parameters. A mean total inflammatory score was calculated for each group. […]

interstitial cystitis = conditions: cited from earlier work

Compound: Nc1ccc(O)c(C(=O)O)c1 [saline + 5ASA, 5-aminosalicylic acid]
- Mean Inflammatory Score (±SEM) ([1]; agent 1 ml intravesical 1 day after PS/LPS, sacrifice day 5 post inoculation, total of four parameters each scored 0-5, saline control 12.7 (±1.5)): 7.9 (±1.8)
- % reduction of inflammation from saline treated control ([1]; from mean inflammatory score, day 5 post inoculation): 37.5%

Compound: oxychlorosene sodium
- results relative to instillation of DMSO (interstitial cystitis; Messing et al. 1978): Equivalent results

Compound: C[S+](C)[O-] [DMSO, dimethylsulfoxide]
- average length of response (interstitial cystitis; instillation into the bladder for six to eight weeks): six
- response rate (interstitial cystitis; instillation into the bladder for six to eight weeks, placebo 18%): 53%
